Laboratory results published in US12448389B2, “BRM targeting compounds and associated methods of use” (Prelude Therapeutics Incorporated, priority 2020, dated 2025).

Assays:
[1] = molecular target: T1, SMARCA2-HiBiT (Homo sapiens, UniProt P51531); experiment: SMARCA2 HiBiT degradation assay in HeLa cells; format: cell-based; details: 18 hours incubation; for DC50: read-out: HeLa_HiBit-SM2 DC50; for Dmax: HeLa, read-out: HeLa-HiBit-SM2 Dmax (%)
T1 construct: SMARCA2-HiBiT knock-in Hela monoclonal cell (CS302366); host or cells: HeLa monoclonal knock-in line (CRISPR HiBiT knock-in at the endogenous locus, heterozygous)
In short: (§1)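 HeLa monoclonal lines with heterozygous HiBiT knock-in were seeded at 2500 cells/well in EMEM with 10% FBS and treated with compound for 18 h at 37 °C. Remaining tagged protein was measured by Nano-Glo HiBiT lytic luminescence after 30–60 min at RT, and values came from curve fitting.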

[2] = molecular target: T2, SMARCA4-HiBiT (Homo sapiens, UniProt P51532); experiment: SMARCA4 HiBiT degradation assay in HeLa cells; format: cell-based; details: 18 hours incubation; for DC50: read-out: HeLa-HiBit-SM4 DC50; for Dmax: HeLa, read-out: HeLa-HiBit-SM4 Dmax (%)
T2 construct: SMARCA4-HiBiT knock-in Hela monoclonal cell (CS3023226); host or cells: HeLa monoclonal knock-in line (CRISPR HiBiT knock-in at the endogenous locus, heterozygous)
In short: as §1

T1 sequence (P51531 whole entry): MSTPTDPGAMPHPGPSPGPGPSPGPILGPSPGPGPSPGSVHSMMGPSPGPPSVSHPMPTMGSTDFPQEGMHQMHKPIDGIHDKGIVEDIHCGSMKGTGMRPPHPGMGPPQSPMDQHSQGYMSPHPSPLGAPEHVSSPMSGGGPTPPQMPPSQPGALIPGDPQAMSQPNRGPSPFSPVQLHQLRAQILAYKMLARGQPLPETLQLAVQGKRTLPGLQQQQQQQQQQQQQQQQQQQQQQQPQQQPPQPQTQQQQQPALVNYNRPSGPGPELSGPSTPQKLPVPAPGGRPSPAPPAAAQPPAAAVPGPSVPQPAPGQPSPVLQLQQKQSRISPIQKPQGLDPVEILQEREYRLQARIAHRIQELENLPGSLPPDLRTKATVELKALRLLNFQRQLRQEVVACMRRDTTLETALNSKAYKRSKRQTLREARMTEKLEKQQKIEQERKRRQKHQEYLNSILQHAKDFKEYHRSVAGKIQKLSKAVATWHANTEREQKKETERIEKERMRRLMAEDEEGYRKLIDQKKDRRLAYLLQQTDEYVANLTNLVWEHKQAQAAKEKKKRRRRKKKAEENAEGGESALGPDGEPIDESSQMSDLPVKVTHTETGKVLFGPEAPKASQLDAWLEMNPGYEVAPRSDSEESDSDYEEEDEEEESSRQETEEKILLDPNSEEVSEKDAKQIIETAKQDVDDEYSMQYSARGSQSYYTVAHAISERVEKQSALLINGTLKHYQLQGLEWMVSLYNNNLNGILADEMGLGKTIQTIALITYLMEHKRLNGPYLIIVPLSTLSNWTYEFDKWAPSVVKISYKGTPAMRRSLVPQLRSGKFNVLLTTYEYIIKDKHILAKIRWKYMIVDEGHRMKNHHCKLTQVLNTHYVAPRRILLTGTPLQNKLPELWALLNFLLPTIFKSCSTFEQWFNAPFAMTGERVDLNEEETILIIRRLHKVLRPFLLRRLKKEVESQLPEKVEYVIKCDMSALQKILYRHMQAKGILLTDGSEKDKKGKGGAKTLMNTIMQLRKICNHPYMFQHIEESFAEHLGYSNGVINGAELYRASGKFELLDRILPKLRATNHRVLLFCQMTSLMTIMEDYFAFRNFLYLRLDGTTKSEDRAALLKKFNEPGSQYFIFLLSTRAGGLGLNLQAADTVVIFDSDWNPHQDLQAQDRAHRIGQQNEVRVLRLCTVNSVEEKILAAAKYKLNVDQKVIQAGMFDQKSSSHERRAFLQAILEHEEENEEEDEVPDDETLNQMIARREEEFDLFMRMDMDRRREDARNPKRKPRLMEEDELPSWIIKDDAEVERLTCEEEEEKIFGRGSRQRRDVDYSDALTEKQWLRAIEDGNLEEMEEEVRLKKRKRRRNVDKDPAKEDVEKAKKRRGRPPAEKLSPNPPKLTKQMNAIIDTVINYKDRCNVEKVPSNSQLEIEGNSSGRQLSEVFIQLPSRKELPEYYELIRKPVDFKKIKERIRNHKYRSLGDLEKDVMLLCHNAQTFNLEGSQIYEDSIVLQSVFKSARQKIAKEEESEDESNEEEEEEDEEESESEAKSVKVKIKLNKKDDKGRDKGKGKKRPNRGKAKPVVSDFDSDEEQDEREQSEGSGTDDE
T2 sequence (P51532 whole entry): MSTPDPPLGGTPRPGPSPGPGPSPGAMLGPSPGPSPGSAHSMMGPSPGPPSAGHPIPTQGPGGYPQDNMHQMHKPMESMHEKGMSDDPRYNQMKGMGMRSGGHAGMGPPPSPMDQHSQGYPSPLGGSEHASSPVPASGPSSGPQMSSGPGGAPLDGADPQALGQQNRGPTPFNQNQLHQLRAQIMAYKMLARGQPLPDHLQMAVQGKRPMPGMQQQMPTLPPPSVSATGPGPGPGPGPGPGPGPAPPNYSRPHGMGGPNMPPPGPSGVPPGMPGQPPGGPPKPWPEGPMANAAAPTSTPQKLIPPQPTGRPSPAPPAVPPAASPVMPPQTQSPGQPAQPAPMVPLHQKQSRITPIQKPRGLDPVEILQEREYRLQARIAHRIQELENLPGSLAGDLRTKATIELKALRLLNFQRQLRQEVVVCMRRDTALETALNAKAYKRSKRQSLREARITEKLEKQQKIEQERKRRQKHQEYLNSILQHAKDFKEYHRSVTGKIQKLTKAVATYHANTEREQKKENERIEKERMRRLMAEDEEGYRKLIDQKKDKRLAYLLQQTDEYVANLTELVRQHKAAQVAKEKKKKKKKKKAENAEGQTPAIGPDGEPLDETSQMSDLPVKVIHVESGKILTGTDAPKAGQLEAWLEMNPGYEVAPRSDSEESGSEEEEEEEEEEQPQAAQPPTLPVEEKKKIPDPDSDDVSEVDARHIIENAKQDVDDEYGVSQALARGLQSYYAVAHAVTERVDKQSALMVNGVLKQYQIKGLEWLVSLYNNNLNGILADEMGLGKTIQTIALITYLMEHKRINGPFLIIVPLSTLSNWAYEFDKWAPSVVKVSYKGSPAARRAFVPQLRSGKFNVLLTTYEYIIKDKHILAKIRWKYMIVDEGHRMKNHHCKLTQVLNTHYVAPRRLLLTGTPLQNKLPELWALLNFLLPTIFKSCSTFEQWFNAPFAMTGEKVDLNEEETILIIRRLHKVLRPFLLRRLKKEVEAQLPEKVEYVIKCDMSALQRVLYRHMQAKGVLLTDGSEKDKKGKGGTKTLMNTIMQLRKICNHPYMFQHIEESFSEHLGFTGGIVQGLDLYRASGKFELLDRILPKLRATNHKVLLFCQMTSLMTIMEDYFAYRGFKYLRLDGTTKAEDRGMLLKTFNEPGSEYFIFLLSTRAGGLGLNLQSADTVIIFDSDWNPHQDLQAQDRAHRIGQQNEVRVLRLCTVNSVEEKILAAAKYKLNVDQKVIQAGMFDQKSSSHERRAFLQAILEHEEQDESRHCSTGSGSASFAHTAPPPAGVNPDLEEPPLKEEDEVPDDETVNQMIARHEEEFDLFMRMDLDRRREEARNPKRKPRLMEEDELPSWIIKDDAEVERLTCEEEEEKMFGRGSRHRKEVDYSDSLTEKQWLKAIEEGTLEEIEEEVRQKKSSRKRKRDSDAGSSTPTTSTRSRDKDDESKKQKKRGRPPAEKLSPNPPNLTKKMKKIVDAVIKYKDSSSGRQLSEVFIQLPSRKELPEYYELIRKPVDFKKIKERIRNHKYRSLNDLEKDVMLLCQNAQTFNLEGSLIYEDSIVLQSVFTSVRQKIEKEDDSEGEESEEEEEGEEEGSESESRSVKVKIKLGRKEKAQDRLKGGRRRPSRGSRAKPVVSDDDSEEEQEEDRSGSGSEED

Row | SMILES | DC50 [1] | Dmax [1] | DC50 [2] | Dmax [2]
1 | COC1(CN2CCN3c4cc(-c5ccccc5O)nnc4NC[C@H]3C2)CCN(CC2CCN(c3ccc4c(c3)CN(C3CCC(=O)NC3=O)C4=O)CC2)CC1 (stereo partly drawn) [Example 251, 3-(5-(4-((4-(((S)-2-(2-hydroxyphenyl)-5,6,6a,7,9,10-hexahydro-8H-pyrazino[1′,2′:4,5]pyrazino[2,3-c]pyridazin-8-yl)methyl)-4-methoxypiperidin-1-yl)methyl)piperidin-1-yl)-1-oxoisoindolin-2-yl)piperidine-2,6-dione] | < 10 nM | > 85% | < 10 nM | > 85%
2 | O=C1CCC(N2Cc3ccc(N4CCC(CN5C[C@@H]6[C@H](C5)[C@H]6C(=O)N5CCN6c7cc(-c8ccccc8O)nnc7NC[C@H]6C5)CC4)cc3C2=O)C(=O)N1 (stereo partly drawn) [Example 96, 3-(6-(4-(((1R,5S,6r)-6-((S)-2-(2-hydroxyphenyl)-6,6a,7,8,9,10-hexahydro-5H-pyrazino[1′,2′:4,5]pyrazino[2,3-c]pyridazine-8-carbonyl)-3-azabicyclo[3.1.0]hexan-3-yl)methyl)piperidin-1-yl)-1-oxoisoindolin-2-yl)piperidine-2,6-dione] | < 10 nM | 50 to 75% | 10 to 100 nM | ≤ 50%
3 | O=C1CC[C@@H](N2Cc3cc(OCCN4CCC(N5CCN6c7cc(-c8ccccc8O)nnc7NC[C@H]6C5)CC4)ccc3C2=O)C(=O)N1 [Example 239, (R)-3-(5-(2-(4-((S)-2-(2-hydroxyphenyl)-5,6,6a,7,9,10-hexahydro-8H-pyrazino[1′,2′:4,5]pyrazino[2,3-c]pyridazin-8-yl)piperidin-1-yl)ethoxy)-1-oxoisoindolin-2-yl)piperidine-2,6-dione] | < 10 nM | > 85% | < 10 nM | 50 to 75%

More lines, now with the values ahead:

Row | DC50 [1] | Dmax [1] | DC50 [2] | Dmax [2] | SMILES
4 | < 10 nM | 75 to 85% | < 10 nM | > 85% | O=C1CCC(N2C(=O)c3ccc(N4C[C@@H]5CN(C6CCC(C(=O)N7CCN8c9cc(-c%10ccccc%10O)nnc9NC[C@H]8C7)CC6)C[C@H]5C4)cc3C2=O)C(=O)N1 (stereo partly drawn) [Example 98, 2-(2,6-dioxopiperidin-3-yl)-5-((3aS,6aS)-5-(4-((S)-2-(2-hydroxyphenyl)-6,6a,7,8,9,10-hexahydro-5H-pyrazino[1′,2′:4,5]pyrazino[2,3-c]pyridazine-8-carbonyl)cyclohexyl)hexahydropyrrolo[3,4-c]pyrrol-2(1H)-yl) isoindoline-1,3-dione]
5 | < 10 nM | > 85% | 10 to 100 nM | 50 to 75% | O=C1CCC(N2C(=O)c3ccc(N4CC(CN5CCC(C(=O)N6CCN7c8cc(-c9ccccc9O)nnc8NC[C@H]7C6)CC5)C4)cc3C2=O)C(=O)N1 (stereo partly drawn) [Example 86, 2-(2,6-dioxopiperidin-3-yl)-5-(3-((4-((S)-2-(2-hydroxyphenyl)-6,6a,7,8,9,10-hexahydro-5H-pyrazino[1′,2′:4,5]pyrazino[2,3-c]pyridazine-8-carbonyl)piperidin-1-yl)methyl)azetidin-1-yl)isoindoline-1,3-dione]
6 | < 10 nM | 75 to 85% | < 10 nM | 50 to 75% | O=C1CCC(N2Cc3cc(N4CCO[C@H](CN5C[C@@H]6[C@H](C5)[C@H]6CN5CCN6c7cc(-c8ccccc8O)nnc7NC[C@H]6C5)C4)ccc3C2=O)C(=O)N1 (stereo partly drawn) [Example 268, 3-(5-((R)-2-(((1R,5S,6S)-6-(((S)-2-(2-hydroxyphenyl)-5,6,6a,7,9,10-hexahydro-8H-pyrazino[1′,2′:4,5]pyrazino[2,3-c]pyridazin-8-yl)methyl)-3-azabicyclo[3.1.0]hexan-3-yl)methyl)morpholino)-1-oxoisoindolin-2-yl)piperidine-2,6-dione]
